Assay results from US8076338B2, “Kinase modulators and methods of use” (Exelixis, Inc., priority 2004, dated 2011).
pIC50: −log10 of the molar value. Like-named read-outs stand apart in the source and are kept apart here.

How the values were obtained:
[1] = biological target: AktK (Homo sapiens, UniProt P31749); experiment: Luciferase-coupled chemiluminescence kinase assay (ATP consumption); assay type: biochemical; settings: read-out: AKT-1 IC50
Summary of the method: (§1)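 Activity is read as ATP depletion: luciferase-luciferin reagent added after a 3 h ambient-temperature kinase reaction, with total ATP use limited to 25-60%. Before ATP addition, 2.5-5 nM kinase and compound were preincubated 30 min in Tris pH 7.5/MgCl2/TX-100/DTT buffer; […].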

[2] = biological target: p70S6K (Homo sapiens, UniProt P23443); experiment: as above; assay type: biochemical
Chain of p70S6K (P23443 whole entry): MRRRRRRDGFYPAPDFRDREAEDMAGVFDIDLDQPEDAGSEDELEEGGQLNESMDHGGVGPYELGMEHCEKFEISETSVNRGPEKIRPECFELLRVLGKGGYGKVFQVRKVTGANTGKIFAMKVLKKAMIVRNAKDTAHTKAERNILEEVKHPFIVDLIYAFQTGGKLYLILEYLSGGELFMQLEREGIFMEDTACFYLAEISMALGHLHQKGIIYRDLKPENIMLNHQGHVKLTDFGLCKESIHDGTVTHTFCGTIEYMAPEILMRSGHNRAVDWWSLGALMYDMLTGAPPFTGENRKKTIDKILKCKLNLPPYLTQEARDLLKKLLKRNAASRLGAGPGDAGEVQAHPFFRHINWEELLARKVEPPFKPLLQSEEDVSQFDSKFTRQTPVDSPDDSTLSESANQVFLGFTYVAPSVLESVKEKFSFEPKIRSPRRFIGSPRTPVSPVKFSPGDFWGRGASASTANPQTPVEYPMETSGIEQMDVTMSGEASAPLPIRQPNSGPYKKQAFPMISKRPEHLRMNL
Summary of the method: as §1

Chain of AktK (P31749 whole entry): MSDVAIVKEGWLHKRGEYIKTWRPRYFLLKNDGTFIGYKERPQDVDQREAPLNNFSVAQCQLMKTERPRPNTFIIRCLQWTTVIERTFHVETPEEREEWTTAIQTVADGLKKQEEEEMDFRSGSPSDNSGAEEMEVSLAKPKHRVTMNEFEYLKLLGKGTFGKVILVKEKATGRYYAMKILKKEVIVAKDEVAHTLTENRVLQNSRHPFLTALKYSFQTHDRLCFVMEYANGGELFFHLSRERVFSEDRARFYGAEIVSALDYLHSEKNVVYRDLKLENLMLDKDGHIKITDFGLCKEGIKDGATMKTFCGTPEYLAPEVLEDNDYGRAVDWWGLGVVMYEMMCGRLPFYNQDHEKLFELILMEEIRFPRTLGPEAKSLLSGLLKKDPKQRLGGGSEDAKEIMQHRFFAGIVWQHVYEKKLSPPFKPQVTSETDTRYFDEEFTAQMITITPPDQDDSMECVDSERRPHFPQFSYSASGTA

| pIC50 ([1]; Table 1, class symbols per key) | pIC50 ([2]; Table 1, class symbols per key) | pIC50 [1] | pIC50 [2] | Compound |
| --- | --- | --- | --- | --- |
| 5.00 to 6.00 | 6.00 to 7.00 | – | – | CCN(CC)CCCOc1nc(Cl)nc(N2CCN(c3ncnc4[nH]nc(Br)c34)CC2)c1C [Entry 149, 3-({6-[4-(3-bromo-1H-pyrazolo[3,4-d]pyrimidin-4-yl)piperazin-1-yl]-2-chloro-5-methylpyrimidin-4-yl}oxy)-N,N-diethylpropan-1-amine] |
| ≤ 5.00 | 6.00 to 7.00 | – | – | Brc1ccc(N2CCN(c3ncnc4[nH]nc(Br)c34)CC2)cc1 [Entry 157, 3-bromo-4-[4-(4-bromophenyl)piperazin-1-yl]-1H-pyrazolo[3,4-d]pyrimidine] |
| ≤ 5.00 | 6.00 to 7.00 | – | – | FC(F)(F)c1cccnc1N1CCN(c2ncnc3[nH]nc(Br)c23)CC1 [Entry 135, 3-bromo-4-{4-[3-(trifluoromethyl)pyridin-2-yl]piperazin-1-yl}-1H-pyrazolo[3,4-d]pyrimidine] |
| ≤ 5.00 | 6.00 to 7.00 | – | – | CCOc1ccc(N2CCN(c3ncnc4[nH]nc(Br)c34)CC2)cc1 [Entry 104, 3-bromo-4-{4-[4-(ethyloxy)phenyl]piperazin-1-yl}-1H-pyrazolo[3,4-d]pyrimidine] |
| ≤ 5.00 | 6.00 to 7.00 | – | – | Clc1ccc(N2CCN(c3ncnc4[nH]nc(Br)c34)CC2)c(Cl)c1 [Entry 77, 3-bromo-4-[4-(2,4-dichlorophenyl)piperazin-1-yl]-1H-pyrazolo[3,4-d]pyrimidine] |
| – | – | 5.00 to 6.00 | 5.00 to 6.00 | Cc1ccc(Cl)cc1N1CCN(c2ncnc3[nH]nc(CC4CCNCC4)c23)CC1 [Entry 394, 4-[4-(5-chloro-2-methylphenyl)piperazin-1-yl]-3-(piperidin-4-ylmethyl)-1H-pyrazolo[3,4-d]pyrimidine] |
| – | – | 5.00 to 6.00 | 5.00 to 6.00 | Cc1ccc(Cl)cc1N1CCN(c2ncnc3[nH]nc(-c4cccc(OCc5ccccc5)c4)c23)CC1 [Entry 336, 4-[4-(5-chloro-2-methylphenyl)piperazin-1-yl]-3-{3-[(phenylmethyl)oxy]phenyl}-1H-pyrazolo[3,4-d]pyrimidine] |
| ≤ 5.00 | > 7.00 | – | – | Cc1cc(N2CCN(c3ncnc4[nH]nc(Br)c34)CC2)c2ccccc2n1 [Entry 120, 4-[4-(3-bromo-1H-pyrazolo[3,4-d]pyrimidin-4-yl)piperazin-1-yl]-2-methylquinoline] |
| – | – | ≤ 5.00 | 6.00 to 7.00 | CCc1n[nH]c2ncnc(N3CCCN(c4cccc(Cl)c4)CC3)c12 [Entry 343, 4-[4-(3-chlorophenyl)-1,4-diazepan-1-yl]-3-ethyl-1H-pyrazolo[3,4-d]pyrimidine] |
| – | – | 5.00 to 6.00 | > 7.00 | COC(=O)/C=C/c1n[nH]c2ncnc(N3CCN(c4cc(Cl)ccc4C)CC3)c12 [Entry 372, methyl (2E)-3-{4-[4-(5-chloro-2-methylphenyl)piperazin-1-yl]-1H-pyrazolo[3,4-d]pyrimidin-3-yl}prop-2-enoate] |
| – | – | > 7.00 | > 7.00 | Cc1c(NCCN2CCCC2)cc(OCC(F)(CF)CF)cc1N1CCN(c2ncnc3[nH]nc(/C=C/C(=O)O)c23)CC1 [Entry 291, (2E)-3-[4-(4-{5-{[2,3-difluoro-2-(fluoromethyl)pro-pyl]oxy}-2-methyl-3-[(2-pyrrolidin-1-ylethyl)a-mino]phenyl}piperazin-1-yl)-1H-pyrazolo[3,4-d]pyrimidin-3-yl]prop-2-enoic acid] |
| – | – | 5.00 to 6.00 | 6.00 to 7.00 | Cc1ccc(Cl)cc1N1CCN(c2ncnc3[nH]nc(-c4ccc5c(c4)OCO5)c23)CC1 [Entry 337, 3-(1,3-benzodioxol-5-yl)-4-[4-(5-chloro-2-methyl-phenyl)piperazin-1-yl]-1H-pyrazolo[3,4-d]pyrimidine] |
| ≤ 5.00 | 6.00 to 7.00 | – | – | CCc1n[nH]c2ncnc(N3CCN(c4ccccc4)CC3)c12 [Entry 98, 3-ethyl-4-(4-phenylpiperazin-1-yl)-1H-pyrazolo[3,4-d]pyrimidine] |
| > 7.00 | > 7.00 | – | – | CCN(CC)CCNc1cc(Cl)cc(N2CCN(c3ncnc4[nH]nc(Br)c34)CC2)c1C [Entry 28, N′-{3-[4-(3-bromo-1H-pyrazolo[3,4-d]pyrimidin-4-yl)piperazin-1-yl]-5-chloro-2-methylphenyl}-N,N-diethylethane-1,2-diamine] |
| > 7.00 | > 7.00 | – | – | Cc1ccc(-c2ccccc2OCCN2C(=O)CCC2=O)cc1N1CCN(c2ncnc3[nH]nc(Br)c23)CC1 [Entry 281, 1-[2-({3′-[4-(3-bromo-1H-pyrazolo[3,4-d]pyrimidin-4-yl)piperazin-1-yl]-4′-methylbiphenyl-2-yl}oxy)ethyl]pyrrolidine-2,5-dione] |
| 6.00 to 7.00 | > 7.00 | – | – | Cc1c(CCCN2CCCC2)cc(F)cc1N1CCN(c2ncnc3[nH]nc(Br)c23)CC1 [Entry 60, 3-bromo-4-{4-[5-fluoro-2-methyl-3-(3-pyrrolidin-1-ylpropyl)phenyl]piperazin-1-yl}-1H-pyrazolo[3,4-d]pyrimidine] |
| 6.00 to 7.00 | > 7.00 | – | – | CCc1n[nH]c2ncnc(N3CCN(c4cc(Cl)cc(OCCN5CCN(C)CC5)c4C)CC3)c12 [Entry 30, 4-[4-(5-chloro-2-methyl-3-{[2-(4-methylpiperazin-1-yl)ethyl]oxy}phenyl)piperazin-1-yl]-3-ethyl-1H-pyrazolo[3,4-d]pyrimidine] |
| ≤ 5.00 | 6.00 to 7.00 | – | – | CCc1n[nH]c2ncnc(N3CCN(c4cccc(OC)c4)CC3)c12 [Entry 99, 3-ethyl-4-{4-[3-(methyloxy)phenyl]piperazin-1-yl}-1H-pyrazolo[3,4-d]pyrimidine] |
| ≤ 5.00 | 6.00 to 7.00 | – | – | FC(F)(F)c1ccnc(N2CCN(c3ncnc4[nH]nc(Br)c34)CC2)n1 [Entry 118, 3-bromo-4-{4-[4-(trifluoromethyl)pyrimidin-2-yl]piperazin-1-yl}-1H-pyrazolo[3,4-d]pyrimidine] |
| ≤ 5.00 | 6.00 to 7.00 | – | – | CCc1n[nH]c2ncnc(N3CCN(c4cc(C(F)(F)F)ccn4)CC3)c12 [Entry 116, 3-ethyl-4-{4-[4-(trifluoromethyl)pyridin-2-yl]piperazin-1-yl}-1H-pyrazolo[3,4-d]pyrimidine] |
| 5.00 to 6.00 | > 7.00 | – | – | Cc1c(OCCN2CCCC2)cc(Cl)cc1N1CCN(c2ncnc3[nH]nc(CC(C)C)c23)CC1 [Entry 163, 4-(4-{5-chloro-2-methyl-3-[(2-pyrrolidin-1-ylethyl)oxy]phenyl}piperazin-1-yl)-3-(2-methylpropyl)-1H-pyrazolo[3,4-d]pyrimidine] |
| ≤ 5.00 | > 7.00 | – | – | CCc1n[nH]c2ncnc(N3CCN(c4nccc5ccccc45)CC3)c12 [Entry 102, 1-[4-(3-ethyl-1H-pyrazolo[3,4-d]pyrimidin-4-yl)piperazin-1-yl]isoquinoline] |
| – | – | ≤ 5.00 | 5.00 to 6.00 | Clc1ccccc1N1CCN(c2ncnc3[nH]cnc23)CC1 [Entry 299, 6-[4-(2-chlorophenyl)piperazin-1-yl]-9H-purine] |

| Compound | pIC50 ([1]; Table 1, class symbols per key) | pIC50 ([2]; Table 1, class symbols per key) | pIC50 [1] | pIC50 [2] |
| --- | --- | --- | --- | --- |
| CCc1n[nH]c2ncnc(N3CCN(c4cc(OCc5ccccc5)cc(NCCN5CCCC5)c4C)CC3)c12 [Entry 174, 3-[4-(3-ethyl-1H-pyrazolo[3,4-d]pyrimidin-4-yl)piperazin-1-yl]-2-methyl-5-[(phenylmethyl)oxy]-N-(2-pyrrolidin-1-ylethyl)aniline] | 6.00 to 7.00 | > 7.00 | – | – |
| Cc1c(NCCN2CCCC2)cc(OCC2CC2)cc1N1CCN(c2ncnc3[nH]nc(Br)c23)CC1 [Entry 205, 3-[4-(3-bromo-1H-pyrazolo[3,4-d]pyrimidin-4-yl)piperazin-1-yl]-5-[(cyclopropylmethyl)oxy]-2-methyl-N-(2-pyrrolidin-1-ylethyl)aniline] | > 7.00 | > 7.00 | – | – |
| Cc1c(NCCN2CCCC2)cc(Cl)cc1N1CCN(c2ncnc3[nH]nc(C(C)C)c23)CC1 [Entry 138, 5-chloro-2-methyl-3-{4-[3-(1-methylethyl)-1H-pyrazolo[3,4-d]pyrimidin-4-yl]piperazin-1-yl}-N-(2-pyrrolidin-1-ylethyl)aniline] | 5.00 to 6.00 | > 7.00 | – | – |
| Cc1c(NCCN2CCCC2)cc(OCC2CCCCC2)cc1N1CCN(c2ncnc3[nH]nc(Br)c23)CC1 [Entry 217, 3-[4-(3-bromo-1H-pyrazolo[3,4-d]pyrimidin-4-yl)piperazin-1-yl]-5-[(cyclohexylmethyl)oxy]-2-methyl-N-(2-pyrrolidin-1-ylethyl)aniline] | 6.00 to 7.00 | > 7.00 | – | – |
| 3-bromo-4-(4-{4-methyl-3′-[(2-pyrrolidin-1-yl-ethyl)oxy]biphenyl-3-yl}piperazin-1-yl)-1H-pyrazolo[3,4-d]pyrimidine [Entry 290] | – | – | > 7.00 | > 7.00 |
| Cc1c(NCCN2CCCC2)cc(COCC(F)(F)F)cc1N1CCN(c2ncnc3[nH]nc(Br)c23)CC1 [Entry 280, 3-[4-(3-bromo-1H-pyrazolo[3,4-d]pyrimidin-4-yl)piperazin-1-yl]-2-methyl-N-(2-pyrrolidin-1-yl-ethyl)-5-{[(2,2,2-trifluoroethyl)oxy]methyl}aniline] | > 7.00 | > 7.00 | – | – |
| FC(F)(F)c1cccc(N2CCN(c3ncnc4[nH]cnc34)CC2)c1 [Entry 314, 6-{4-[3-(trifluoromethyl)phenyl]piperazin-1-yl}-9H-purine] | – | – | ≤ 5.00 | 6.00 to 7.00 |
| Cc1c(NCCN2CCCC2)cc(OCC(C)(C)C)cc1N1CCN(c2ncnc3[nH]nc(Br)c23)CC1 [Entry 221, 3-[4-(3-bromo-1H-pyrazolo[3,4-d]pyrimidin-4-yl)piperazin-1-yl]-5-[(2,2-dimethylpropyl)oxy]-2-methyl-N-(2-pyrrolidin-1-ylethyl)aniline] | > 7.00 | > 7.00 | – | – |
| Cc1c(NCCN2CCCC2)cc(Cl)cc1N1CCN(c2ncnc3[nH]nc(Br)c23)CC1 [Entry 29, 3-[4-(3-bromo-1H-pyrazolo[3,4-d]pyrimidin-4-yl)piperazin-1-yl]-5-chloro-2-methyl-N-(2-pyrrolidin-1-ylethyl)aniline] | > 7.00 | > 7.00 | – | – |
